Series [1] concerns glutamate receptor (NMDA type, Quisqualate type and Kainate type). Briefly: Affinity for the glutamate receptors of the brain, 3 sub-types taken together. It counts as binding, rat. As to conditions: summary of Table 5. From the text:
(§1) The receptors of the exitatory amino acid (especially, glutamate) are classified into NMDA type, Quisqualate type and Kainate type. 3H-CPP [3-(2-carboxypiperazin-4-yl)propyl-1-[…]] as the ligand (a radio active substance which has high affinity for the receptor) for the NMDA-type-receptor, ^3 H-AMPA (DL-α-amino-3-hydroxy-5-methylisoxazole-4-propionic acid) as the ligand for the quisqualate-type-receptor, and ^3 H-kainic acid as the ligand for the kainate-type-receptor were used respectively. A sample of the crude synaptic membrane prepared from the forebrain of rat was washed 4 times by Tris hydrochloric acid buffer (pH 7.1) and kept in a freezing condition at -20° C. until its use.
(§2) Samples of the frozen crude synaptic membrane were melted and, after floating on 50 mM Tris hydrochloric acid buffer (pH 7.1), incubated for 30 minutes at 37° C. After the incubation, the synaptic membrane was centrifuged (48,000×g) and washed 3 times with 50 mM Tris hydrochloric acid buffer and used in the test.
(§3) In the binding assay of the NMDA-type-receptor, samples of the synaptic membrane were incubated in the presence or absence of a test compound together with 10 nM ^3 H-CPP in 50 mM Tris hydrochloric acid buffer (pH 7.1, 0° C.) for 15 minutes. The sediment (pellet) containing synapse membrane which was recovered by centrifugation of the incubation solution was rinsed with 50 mM Tris hydrochloric acid buffer (pH 7.1) and dissolved in 0.5 ml of Protosol® (made by New England Nuclear Inc.). In the binding assay of Quisqualate-type-receptor and Kainate-type-receptor, samples of the synapse was incubated in the presence or absence of a test compound in 5 nM ^3 H-AMPA (Quisqualate-type-receptor) or 2 nM ^3 H-Kainic acid (Kainate-type-receptor) together with 50 mM Tris hydrochloric acid buffer (pH 7.1, 0° C.) for 90 minutes. The solution was filtered with Whatman GF/B filter (Whatman®, made by Whatman Inc.) under reduced pressure and the filter was washed 3 times with 50 mM Tris hydrochloric acid buffer. The radioactivity on the filter was measured by a conventional method. The specific binding amount was determined by subtracting the non-specific binding from the total binding, taking the binding in the presence of an excessive non-radioactive L-sodium glutamate (1 mM) as the amount of the non-specfic binding, i.e., the binding to anything other than the receptor. The 50% inhibiting concentration (IC50) of the compound to be tested was determined as the concentration which inhibits 50% of the specific receptor binding of ^3 H-CPP, ^3 H-AMPA or ^3 H-kainic acid.

The next series has as its target Kainate-type receptor. Briefly: Binding assay of Kainate-type receptor (3H-kainic acid) on rat forebrain crude synaptic membrane. As to conditions: for Affinity to Kainate-type receptor (3H-KA), IC50: 2 nM 3H-Kainic acid, pH 7.1, 0° C., 90 min; for Affinity to the Kainate-type-receptor (in words): summary of Table 5.
Text: as §1, §2
as §3, with “receptor.” for “receptor. The 50% inhibiting concentration (IC50) of the compound to be tested was determined as the concentration which inhibits 50% of the specific receptor binding of ^3 H-CPP, ^3 H-AMPA or ^3 H-kainic acid.”

A further series addresses NMDA-type receptor. Briefly: Binding assay of NMDA-type receptor (3H-CPP) on rat forebrain crude synaptic membrane. As to conditions: for IC50: 10 nM 3H-CPP, pH 7.1, 0° C., 15 min, read-out: Affinity to NMDA-type receptor (3H-CPP), IC50; for Affinity to the NMDA-type-receptor (in words): summary of Table 5.
Text: as §1, §2, §3

Series [2] has as its target Quisqualate-type receptor. Briefly: Binding assay of Quisqualate-type receptor (3H-AMPA) on rat forebrain crude synaptic membrane. As to conditions: for IC50: 5 nM 3H-AMPA, pH 7.1, 0° C., 90 min, read-out: Affinity to Quisqulate-type receptor (3H-AMPA), IC50; for Affinity to the Quisqualate-type-receptor (in words): summary of Table 5.
Text: as §1, §2
as §3, with “receptor.” for “receptor. The 50% inhibiting concentration (IC50) of the compound to be tested was determined as the concentration which inhibits 50% of the specific receptor binding of ^3 H-CPP, ^3 H-AMPA or ^3 H-kainic acid.”

The test system of series [3] is neurons of rat hippocampus. Briefly: Excitatory action on neurons of rat hippocampus in vitro (CA1 spike recording in slices). The format is cell-based. The note with it: Rattus norvegicus, Neuron, rat hippocampal slices, CA1 pyramidal cell layer, Krebs-Ringer solution 33° C.; read-out: Minimum effective concentration to induce firing of hippocampus nervous cell. The method, then:
Male Wister rats (body weight: 300 -350 g) were used in the test. After cutting the head of rats, the brain was quickly taken out and […] thickness of the sliced samples of a hippocampus was prepared by a slice cutter. These samples were incubated in a nutrient solution (Krebs-Ringer solution, 33° C.) saturated with a mixed gas of 95% of oxygen gas and 5% of carbon dioxide gas for one or more hours. The test was carried out in the perfusion cisterna with perfusing at the flow speed of 1.5 ml/min. The action potential (spike) in CA1 pyramidal cell layer of the hippocampus was recorded extracellularlly by using a glass electrode filled with 2M NaCl solution. The test compounds were added to the perfusate and the change in number of the spikes with passage of time was counted by a pulse counter and recorded on the recorder. The Krebs-Ringer's solution contains 124 mM of NaCl, 5 mM of KCl, 1.24 mM of KH2 PO4, 1.3 mM of MgSO4, 2.4 mM of CaCL2, 26 mM of […] and 10 mM of glucose.

Series [4] can be described thus: Conversion of each component of TAN-950 in aqueous solution (HPLC). The format is physicochemical. As to conditions: for TAN-950A in resulting substance, area percentage by HPLC / TAN-950B in resulting substance, area percentage by HPLC / TAN-950C in resulting substance, area percentage by HPLC / TAN-950D in resulting substance, area percentage by HPLC / TAN-950E in resulting substance, area percentage by HPLC: starting material heated in aqueous solution, 1 hour.
Text: The mixture of TAN-950A - E was applied to HPLC in order to isolate each component thereof and each component was isolated as approximately single peak compound.

Series [5] has as its system Memory Dysfunction Induced by Cycloheximide Administration. Briefly: Improvement of cycloheximide-induced memory dysfunction, passive avoidance in mice. It counts as in vivo, C57BL/b mice. As to conditions: 10 mg/kg, i.p.; twice, 30 min before acquisition and before retention test; memory impairment group = 100; * in table: p < 0.05. The method, then: Experimental memory disturbance was induced by administering a protein synthesis inhibiting agent, cycloheximide to C57BL/b male mice of 5 week-age. The memory test was carried out using a passive avoidance learning equipment consisting of two chambers of dark and bright. At first, a memory acquisition process of mice was carried out. In this process, a mouse was released in the bright chamber and the guillotine type door connecting between bright and dark chambers was open. Immediately after the mouse that likes a dark place having entered into the dark chamber, said guillotine type door was closed and an electric shock of 0.4 mA was given to the mouse for 3 seconds through the floor grid. Mice learned through this process to receive electric shock from the floor once they move to the dark chamber. However, the memory formation in mice that received cycloheximide (60 mg/Kg) subcutaneously 30 minutes before this memory acquisition process becomes insufficient. The memory retention test was carried out in accordance with similar procedures with mice which received cycloheximide (memory dysfunction group) and normal mice on the next day that the memory acquisition process was carried out. A time from the release of mice in the bright chamber to the entry into the dark chamber through the guillotine type door opened was measured (latency). The latency was shorter in the memory dysfunction group and the effectiveness of the compounds was determined in terms of a degree of the prolongation of latency. The test compounds were intraperitoneally administered twice in total to the mice each 30 minutes before the memory acquisition process and the memory keeping test.
The effect of the compounds in improving a memory dysfunction was expressed as a percentage in which the latency in the memory impairment group at the memory retention test was regarded as 100, and the results are shown in Table 7.

Consider `Cc1[nH]oc(=O)c1[C@@H](N)C(=O)O` [Compound 155], for which the “Affinity to the 3 sub-type receptors (in words)” value in series [1] is “differences in their affinities”. The “Affinity to Kainate-type receptor (3H-KA), IC50” value (“Affinity … IC50” for short) at Kainate-type receptor was more than 100 µM. Besides, the half-inhibitory concentration (IC50) at NMDA-type receptor was 8.3 µM; in series [2], more than 100000 nM. In the series with NMDA-type receptor, the “Affinity to the NMDA-type-receptor (in words)” value is listed as “high affinity”. In addition, in series [3], the minimal effective concentration is not below 10 µM.
As for `N[C@@H](Cc1c(-c2ccccc2)[nH]oc1=O)C(=O)O` [Compound 87], the “Affinity to the 3 sub-type receptors (in words)” value in series [1] was “high affinities to the 3 sub-type receptors”. The “Affinity … IC50” value on Kainate-type receptor came out at 26 µM. Moreover, the IC50 on NMDA-type receptor stood at 11 µM; in series [2], 15000 nM. For the same compound, the minimal effective concentration in series [3] was found to be 30 µM.
As for `CCc1[nH]oc(=O)c1[C@@H](N)C(=O)O` [Compound 180], the “Affinity to the 3 sub-type receptors (in words)” value in series [1] is recorded as “differences in their affinities”. In addition, the “Affinity … IC50” value at Kainate-type receptor is more than 100 µM. Moreover, the IC50 was 7.9 µM at NMDA-type receptor and more than 100000 nM in series [2]. Moreover, the “Affinity to the NMDA-type-receptor (in words)” value with NMDA-type receptor is “high affinity”. Moreover, the minimal effective concentration in series [3] was not below 30 µM.
Turning to `N[C@@H](C(=O)O)c1c[nH]oc1=O` [Compound 149], in series [1], the “Affinity to the 3 sub-type receptors (in words)” value is reported as “differences in their affinities”. The “Affinity … IC50” value on Kainate-type receptor is more than 100 µM. Further, at NMDA-type receptor, the IC50 was found to be 5.8 µM and the “Affinity to the NMDA-type-receptor (in words)” value is listed as “high affinity”. For the same compound, the IC50 in series [2] is more than 100000 nM. The minimal effective concentration in series [3] was not below 30 µM.
With `CCc1[nH]oc(=O)c1C[C@H](N)C(=O)O` [Compound 81], the “Affinity to the 3 sub-type receptors (in words)” value in series [1] is on record as “high affinities to the 3 sub-type receptors”. For the same compound, the “Affinity … IC50” value on Kainate-type receptor is 17 µM. Further, the IC50 at NMDA-type receptor was determined as 35 µM. Moreover, in series [2], the IC50 worked out at 670 nM and the “Affinity to the Quisqualate-type-receptor (in words)” value was “strong affinity”. The minimal effective concentration in series [3] is not below 1 µM.
Take TAN-950C [Compound 3]: in series [4] (aqueous alkaline solution, room temperature), the “Conversion in aqueous alkaline solution (in words)” value is given as “promptly converted to TAN-950A in an aqueous alkaline solution at room temperature”. For the same compound, in series [4] (60° C.), the “TAN-950A in resulting substance, area percentage by HPLC” value is recorded as 12.3%; the “TAN-950B in resulting substance, area percentage by HPLC” value was 2.8%; the “TAN-950C in resulting substance, area percentage by HPLC” value is given as 72.1%; the “TAN-950D in resulting substance, area percentage by HPLC” value amounted to 3.4%. Further, in series [4] (60° C.), the “TAN-950E in resulting substance, area percentage by HPLC” value came to 5.2%.
Regarding `N[C@@H](Cc1c(C2CCCC2)[nH]oc1=O)C(=O)O` [Compound 158], the “Affinity to the 3 sub-type receptors (in words)” value in series [1] is “differences in their affinities”. Moreover, the “Affinity … IC50” value on Kainate-type receptor was 57 µM. Moreover, the IC50 on NMDA-type receptor is more than 100 µM. In addition, in series [2], the IC50 stood at 310 nM and the “Affinity to the Quisqualate-type-receptor (in words)” value is “strong affinity”. In series [3], the minimal effective concentration is not below 0.3 µM.
Regarding `N[C@@H](Cc1c[nH]oc1=O)C(=O)N1CCCCC1C(=O)O` (some centres unmarked) [Compound 132], in series [1], the “Affinity to the 3 sub-type receptors (in words)” value is “high affinities to the 3 sub-type receptors”. Besides, at Kainate-type receptor, the “Affinity … IC50” value amounted to 4.5 µM and the “Affinity to the Kainate-type-receptor (in words)” value is “strong affinity”. For the same compound, on NMDA-type receptor, the IC50 stood at 6.3 µM and the “Affinity to the NMDA-type-receptor (in words)” value was “high affinity”. Also, in series [2], the IC50 turned out to be 1000 nM and the “Affinity to the Quisqualate-type-receptor (in words)” value was “strong affinity”. In series [3], the minimal effective concentration is not below 300 µM.
As for `N[C@@H](CCC(=O)O)C(=O)O` [Glutamic acid, reference compound], the “Tested Retention Time (percentage to control group), latency” value in series [5] was 101 percentage to control group.
Regarding `N[C@@H](Cc1c(C2CC2)[nH]oc1=O)C(=O)O` [Compound 173], the “Affinity to the 3 sub-type receptors (in words)” value in series [1] is recorded as “high affinities to the 3 sub-type receptors”. For the same compound, at Kainate-type receptor, the “Affinity … IC50” value amounted to 3.8 µM and the “Affinity to the Kainate-type-receptor (in words)” value is “strong affinity”. The IC50 at NMDA-type receptor came to 13 µM. In series [2], the IC50 is 120 nM and the “Affinity to the Quisqualate-type-receptor (in words)” value is listed as “strong affinity”. In addition, the minimal effective concentration in series [3] was not below 0.3 µM.
Consider `CC(C)c1[nH]oc(=O)c1C[C@H](N)C(=O)O` [Compound 84], for which, in series [1], the “Affinity to the 3 sub-type receptors (in words)” value was “high affinities to the 3 sub-type receptors”. Moreover, the “Affinity … IC50” value on Kainate-type receptor came to 67 µM. Besides, the 50% inhibitory concentration (IC50) at NMDA-type receptor was more than 100 µM; in series [2], 3800 nM. In addition, the minimal effective concentration in series [3] was not below 3 µM.
TAN-950D [Compound 4]: the “Conversion in aqueous solution (in words)” value in series [4] (aqueous solution, 60° C.) is “converted to TAN-950A faster than TAN-950C and E”. Besides, in series [4] (60° C.), the “TAN-950A in resulting substance, area percentage by HPLC” value is reported as 53.6%; the “TAN-950B in resulting substance, area percentage by HPLC” value is given as 11.3%; the “TAN-950C in resulting substance, area percentage by HPLC” value turned out to be 12.7%; the “TAN-950D in resulting substance, area percentage by HPLC” value is recorded as 11.2%. Also, in series [4] (60° C.), the “TAN-950E in resulting substance, area percentage by HPLC” value is 2.7%.

As a reminder, the IC50 is the concentration that gives 50% inhibition.

The values are drawn from patent US5021439A, “Cerebral function ameliorating agents related to Tan-950 A” (priority 1988, dated 1991).
